# Experimental data as given in US20260201008A1, “SECRETIN-DERIVED GLP1R SELECTIVE AGONISTS” (GUBRA A/S, priority 2023, published 2026).
# Like-named read-outs stand apart in the source and are kept apart here. Numbered stars: 1 amine (or outer) side, 2 acyl side, 3 side chain; on linkers, the order of the positions; unused ones are H or OH. Square brackets hold non-standard residues; d marks the D form. Side chains are listed from the residue outwards. Peptide text beside a SMILES is read from it. * marks the point of attachment. C20 diacid = O=C(O)CCCCCCCCCCCCCCCCCCC(=O)*; γGlu = O=C(O)[C@H](CCC(=O)[*:2])N[*:1]; AEEA = NCCOCCOCC(=O)O; Aib = CC(C)(N)C(=O)O
# Assays:
# [1] = Turbidity of crude library peptides (absorbance at 600 nm); assay type: physicochemical; conditions: Physical stability of peptides
# Outline: (§1)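 Crude peptides at 267 μM in 50 mM sodium acetate pH 4.0 or 50 mM sodium phosphate pH 7.0, pre-incubated 1-2 h at room temperature, then 4 μM final ThT added. Turbidity read first as A600. ThT fluorescence (ex 450/em 480 nm) read every 10 min for 72 h at 40° C, with 5 min shaking before each read; fibril formation = average emission.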
# GLP1R = GLP1R (Homo sapiens, UniProt P43220); test: hGLP1R potency, cAMP accumulation in CHO-K1 cells stably overexpressing hGLP1R; assay type: cell-based; set-up: host or cells: CHO-K1; conditions: for Selectivity: SCTR EC50/GLP1R EC50 ratio; for EC50: cAMP accumulation, CHO-K1 cells overexpressing hGLP1R; for SCTR EC50/GLP1R EC50 ratio: selectivity for hGLP1R over hSCTR, cAMP accumulation in CHO-K1 cells
# Sequence of GLP1R (P43220 24-463): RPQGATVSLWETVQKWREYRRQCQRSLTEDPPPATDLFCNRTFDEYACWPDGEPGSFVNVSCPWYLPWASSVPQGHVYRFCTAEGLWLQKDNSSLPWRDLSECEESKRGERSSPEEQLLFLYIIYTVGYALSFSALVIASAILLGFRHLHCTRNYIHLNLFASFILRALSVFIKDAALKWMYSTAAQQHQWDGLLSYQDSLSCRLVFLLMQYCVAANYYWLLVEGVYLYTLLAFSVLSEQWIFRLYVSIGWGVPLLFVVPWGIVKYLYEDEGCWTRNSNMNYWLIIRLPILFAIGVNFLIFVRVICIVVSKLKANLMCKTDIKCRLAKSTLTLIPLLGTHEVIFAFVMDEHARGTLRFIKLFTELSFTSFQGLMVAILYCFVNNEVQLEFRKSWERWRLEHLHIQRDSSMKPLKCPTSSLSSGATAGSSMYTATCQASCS
# Outline: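 Thawed cells go straight into buffer containing 0.5 mM IBMX and 0.05% casein, get graded compound doses for 30 min at room temperature, and are then assayed for accumulated cAMP by time-resolved FRET. Human GLP-1(7-36) serves as positive control; EC50 is derived by nonlinear regression.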
# SCTR = SCTR (Homo sapiens, UniProt P47872); test: hSCTR potency, cAMP accumulation in CHO-K1 cells stably overexpressing hSCTR; assay type: cell-based; set-up: alternatively Euroscreen ES-712-AF; FAST-0161L; host or cells: CHO-K1; conditions: cAMP accumulation, CHO-K1 cells overexpressing hSCTR
# Sequence of SCTR (P47872 23-440): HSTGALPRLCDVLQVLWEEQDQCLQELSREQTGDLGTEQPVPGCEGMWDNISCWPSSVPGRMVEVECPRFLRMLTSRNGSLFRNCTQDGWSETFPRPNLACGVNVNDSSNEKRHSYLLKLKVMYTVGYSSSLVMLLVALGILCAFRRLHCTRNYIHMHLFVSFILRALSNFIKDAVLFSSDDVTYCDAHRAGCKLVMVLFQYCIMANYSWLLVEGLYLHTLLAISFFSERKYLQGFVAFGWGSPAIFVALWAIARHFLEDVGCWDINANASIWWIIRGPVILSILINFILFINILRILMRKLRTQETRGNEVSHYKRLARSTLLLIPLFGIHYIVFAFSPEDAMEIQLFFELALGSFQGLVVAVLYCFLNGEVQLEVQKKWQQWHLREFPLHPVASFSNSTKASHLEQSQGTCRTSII
# Outline: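 Read-out is TR-FRET cAMP detection, recorded one hour after reagent addition, in CHO-K1 cells stably overexpressing hSCTR. Cells in DPBS containing 0.05% casein and 0.5 mM IBMX are exposed to graded peptide doses for 30 min at room temperature, with human secretin as reference agonist.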
# [2] = Fibril formation of crude library peptides (Thioflavin T); assay type: physicochemical; set-up: key: average ThT fluorescence emission at 480 nm (ex 450 nm), raw units; conditions: Physical stability of peptides
# Outline: as §1
# [3] = read-out: pEC50 hGLPR1 (converted)
# [4] = read-out: pEC50 hSCTR (converted)
# [5] = read-out: hGLP1R pEC50 (converted)
# [6] = read-out: hSCTR pEC50 (converted)
SMILES,Turbidity (pH 7) [1],Selectivity (GLP1R),EC50 (GLP1R; [3]) [nM],EC50 (SCTR; [4]) [nM],Fibril formation [2],EC50 (GLP1R; [5]) [nM],SCTR EC50/GLP1R EC50 ratio (GLP1R),EC50 (SCTR; [6]) [nM]
CC(C)C[C@H](NC(=O)[C@H](Cc1ccccc1)NC(=O)[C@H](CCCNC(=N)N)NC(=O)[C@H](CCC(N)=O)NC(=O)[C@@H](NC(=O)[C@H](C)NC(=O)[C@H](C)NC(=O)[C@H](CCC(=O)O)NC(=O)[C@H](CCC(=O)O)NC(=O)[C@H](CCCCNC(=O)COCCOCCNC(=O)COCCOCCNC(=O)CC[C@H](NC(=O)CCCCCCCCCCCCCCCCCCC(=O)O)C(=O)O)NC(=O)[C@H](CC(C)C)NC(=O)[C@@H](NC(=O)[C@H](CO)NC(=O)[C@@H](NC(=O)[C@H](CC(=O)O)NC(=O)[C@H](CO)NC(=O)[C@@H](NC(=O)[C@H](Cc1ccccc1)NC(=O)[C@@H](NC(=O)CNC(=O)[C@H](CCC(=O)O)NC(=O)C(C)(C)NC(=O)[C@@H](N)Cc1c[nH]cn1)[C@@H](C)O)[C@@H](C)O)C(C)C)C(C)C)[C@@H](C)O)C(=O)N[C@@H](CCC(=O)O)C(=O)N[C@@H](Cc1c[nH]cn1)C(=O)N[C@@H](CC(C)C)C(=O)N[C@H](C(N)=O)C(C)C [compound 53] (H-H[Aib]EGTFTSDVSVLK([AEEA-AEEA-γGlu-C20 diacid])EEAATQRFLEHLV-NH2),0.08,10988,0.00501,63.1,5164,–,–,–
CC[C@H](C)[C@H](NC(=O)[C@H](Cc1ccccc1)NC(=O)[C@H](CCCNC(=N)N)NC(=O)[C@H](CCC(N)=O)NC(=O)[C@H](CC(C)C)NC(=O)[C@H](C)NC(=O)[C@H](C)NC(=O)CNC(=O)[C@H](CCC(=O)O)NC(=O)[C@H](CC(C)C)NC(=O)[C@H](CC(C)C)NC(=O)[C@H](Cc1c[nH]c2ccccc12)NC(=O)[C@H](CO)NC(=O)[C@@H]1CCCN1C(=O)[C@H](CC(=O)O)NC(=O)[C@H](CO)NC(=O)[C@@H](NC(=O)[C@H](Cc1ccccc1)NC(=O)[C@@H](NC(=O)CNC(=O)[C@H](CCC(=O)O)NC(=O)C(C)(C)NC(=O)[C@@H](N)Cc1c[nH]cn1)[C@@H](C)O)[C@@H](C)O)C(=O)N[C@@H](CCC(N)=O)C(=O)N[C@@H](Cc1c[nH]c2ccccc12)C(=O)N[C@@H](CC(C)C)C(=O)N[C@H](C(N)=O)C(C)C [compound 127] (H-H[Aib]EGTFTSDPSWLLEGAALQRFIQWLV-NH2),0.19,–,–,–,11084,7.94,464,3980
CC(C)C[C@H](NC(=O)[C@H](Cc1ccccc1)NC(=O)[C@H](CCCNC(=N)N)NC(=O)[C@H](CCC(N)=O)NC(=O)[C@@H](NC(=O)[C@H](C)NC(=O)[C@H](C)NC(=O)C(C)(C)NC(=O)[C@H](CCC(=O)O)NC(=O)[C@H](CCCCNC(=O)COCCOCCNC(=O)COCCOCCNC(=O)CC[C@H](NC(=O)CCCCCCCCCCCCCCCCCCC(=O)O)C(=O)O)NC(=O)[C@H](CC(C)C)NC(=O)[C@@H](NC(=O)[C@H](CO)NC(=O)[C@@H](NC(=O)[C@H](CC(=O)O)NC(=O)[C@H](CO)NC(=O)[C@@H](NC(=O)[C@H](Cc1ccccc1)NC(=O)[C@@H](NC(=O)CNC(=O)[C@H](CCC(=O)O)NC(=O)C(C)(C)NC(=O)[C@@H](N)Cc1c[nH]cn1)[C@@H](C)O)[C@@H](C)O)C(C)C)C(C)C)[C@@H](C)O)C(=O)N[C@@H](CCC(=O)O)C(=O)N[C@@H](Cc1c[nH]cn1)C(=O)N[C@@H](CC(C)C)C(=O)N[C@H](C(N)=O)C(C)C [compound 49] (H-H[Aib]EGTFTSDVSVLK([AEEA-AEEA-γGlu-C20 diacid])E[Aib]AATQRFLEHLV-NH2),0.08,5429,0.02,126,11371,–,–,–
CC(C)C[C@H](NC(=O)[C@H](Cc1ccccc1)NC(=O)[C@H](CCCNC(=N)N)NC(=O)[C@H](CCC(N)=O)NC(=O)[C@H](CCC(=O)O)NC(=O)[C@H](C)NC(=O)[C@H](C)NC(=O)C(C)(C)NC(=O)[C@H](CCC(=O)O)NC(=O)[C@H](CCCCNC(=O)COCCOCCNC(=O)COCCOCCNC(=O)CC[C@H](NC(=O)CCCCCCCCCCCCCCCCCCC(=O)O)C(=O)O)NC(=O)[C@H](CC(C)C)NC(=O)[C@@H](NC(=O)[C@H](CO)NC(=O)[C@@H](NC(=O)[C@H](CC(=O)O)NC(=O)[C@H](CO)NC(=O)[C@@H](NC(=O)[C@H](Cc1ccccc1)NC(=O)[C@@H](NC(=O)CNC(=O)[C@H](CCC(=O)O)NC(=O)C(C)(C)NC(=O)[C@@H](N)Cc1c[nH]cn1)[C@@H](C)O)[C@@H](C)O)C(C)C)[C@@H](C)O)C(=O)N[C@@H](CCC(=O)O)C(=O)N[C@@H](Cc1c[nH]cn1)C(=O)N[C@@H](CC(C)C)C(=O)N[C@H](C(N)=O)C(C)C [compound 16] (H-H[Aib]EGTFTSDVSTLK([AEEA-AEEA-γGlu-C20 diacid])E[Aib]AAEQRFLEHLV-NH2),0.08,2876,0.0398,126,11719,–,–,–

# The remaining lines, values ahead:
Turbidity (pH 7) [1],Selectivity (GLP1R),EC50 (GLP1R; [3]) [nM],EC50 (SCTR; [4]) [nM],Fibril formation [2],EC50 (GLP1R; [5]) [nM],SCTR EC50/GLP1R EC50 ratio (GLP1R),EC50 (SCTR; [6]) [nM],SMILES
0.09,6907,0.0126,79.4,14563,–,–,–,CC(C)C[C@H](NC(=O)[C@H](Cc1ccccc1)NC(=O)[C@H](CCCNC(=N)N)NC(=O)[C@H](CCC(N)=O)NC(=O)[C@H](CCC(N)=O)NC(=O)[C@H](C)NC(=O)[C@H](C)NC(=O)C(C)(C)NC(=O)[C@H](CCC(=O)O)NC(=O)[C@H](CCCCNC(=O)COCCOCCNC(=O)COCCOCCNC(=O)CC[C@H](NC(=O)CCCCCCCCCCCCCCCCCCC(=O)O)C(=O)O)NC(=O)[C@H](CC(C)C)NC(=O)[C@H](CCC(=O)O)NC(=O)[C@H](CO)NC(=O)[C@@H](NC(=O)[C@H](CC(=O)O)NC(=O)[C@H](CO)NC(=O)[C@@H](NC(=O)[C@H](Cc1ccccc1)NC(=O)[C@@H](NC(=O)CNC(=O)[C@H](CCC(=O)O)NC(=O)C(C)(C)NC(=O)[C@@H](N)Cc1c[nH]cn1)[C@@H](C)O)[C@@H](C)O)C(C)C)C(=O)N[C@@H](CCC(=O)O)C(=O)N[C@@H](Cc1c[nH]cn1)C(=O)N[C@@H](CC(C)C)C(=O)N[C@H](C(N)=O)C(C)C [compound 5] (H-H[Aib]EGTFTSDVSELK([AEEA-AEEA-γGlu-C20 diacid])E[Aib]AAQQRFLEHLV-NH2)
0.08,–,–,–,10901,0.01,111764,1000,CC(C)C[C@H](NC(=O)[C@H](Cc1ccccc1)NC(=O)[C@H](CCCNC(=N)N)NC(=O)[C@H](CCC(N)=O)NC(=O)[C@H](CCC(N)=O)NC(=O)[C@H](C)NC(=O)[C@H](C)NC(=O)C(C)(C)NC(=O)[C@H](CCC(=O)O)NC(=O)[C@H](CCCCNC(=O)COCCOCCNC(=O)COCCOCCNC(=O)CC[C@H](NC(=O)CCCCCCCCCCCCCCCCCCC(=O)O)C(=O)O)NC(=O)[C@H](CC(C)C)NC(=O)[C@H](Cc1ccc(O)cc1)NC(=O)[C@H](CO)NC(=O)[C@@H](NC(=O)[C@H](CC(=O)O)NC(=O)[C@H](CO)NC(=O)[C@@H](NC(=O)[C@H](Cc1ccccc1)NC(=O)[C@@H](NC(=O)CNC(=O)[C@H](CCC(=O)O)NC(=O)C(C)(C)NC(=O)[C@@H](N)Cc1c[nH]cn1)[C@@H](C)O)[C@@H](C)O)C(C)C)C(=O)N[C@@H](CCC(=O)O)C(=O)N[C@@H](Cc1c[nH]cn1)C(=O)N[C@@H](CC(C)C)C(=O)N[C@H](C(N)=O)C(C)C [compound 94] (H-H[Aib]EGTFTSDVSYLK([AEEA-AEEA-γGlu-C20 diacid])E[Aib]AAQQRFLEHLV-NH2)
